Measured values published in patent US10391150B2, “Treatments for migraine and related disorders” (The University of Chicago, priority 2011, dated 2019).
Entries after “also recorded” stand apart in the source; their conditions may differ.

What was measured:
[1] = test system: OS from cLTP in hippocampal slice cultures; assay: OS / reactive oxygen species generated from chemical long-term potentiation (cLTP) in slice cultures; type: cell-based, rat; conditions: 3 days treatment (IFN-γ 500 U/mL; IL-11; IGF-1), compared to shams
Method: This beneficial effect of low-level IFN-γ is supported by results from rats. In rats, enrichment, which occurs with hippocampal learning, led to a significant elevation in hippocampal T-cells, IFN-γ and MBP.
Experiments were performed in rat hippocampal slices cultures and SD induced as previously described (Pusic et al., 2011). Results were derived from n≥3-6/group. […] This is consistent with the neural activity increase seen after SD, which mimics the hyperexcitability evident in migraine patients.
This prompted the inventors to examine whether insulin could reduce SD susceptibility by increasing CA3 pyramidal neuron bursting. The inventors induced SD trans-synaptically in rat HSC using electrical stimuli (100 μs pulses @ 10 Hz for 1 s) ranging from 1 to 10,000 nC in order to determine SD threshold in sham and experimental groups (Pusic et al., 2011). Results were based on n≥3-6/group. […] This insulin dose approximates the pharmacological levels seen in humans treated with nasal insulin. […] The inventors hypothesized that the effect of insulin occurred through IGF-1 receptor cross-talk.
The inventors use a well-accepted method for inducing cLTP in slice cultures (Kraig et al., 2010; Otmakhov et al., 2004a; Otmakhov et al., 2004b; Kopec et al., 2006). The protocol consists of raising cAMP levels and increasing synaptic activity using rolipram/forskolin applied in a Mg^2+-free Ringer's solution (36° C.) for 5 min, then allowing slices to recover in normal media.

[2] = test system: oxidative stress (OS) in hippocampal slice cultures; assay: Oxidative stress (OS) by CellROX fluorescence in hippocampal slice cultures (CA3); type: cell-based, rat
Method: FIGS. 4A-4F Oxidative stress (OS) from SD and its reduction by IGF-1. (FIG. 4A) Normal cytoarchitecture of a hippocampal slice culture showing pyramidal neuron areas of CA1, dentate gyrus (DG), and the imaging zone for the inventors' work here (dotted line), CA3. (FIG. 4B) OS was measured using CellROX, a fixable fluorescent marker from Invitrogen. […] (FIG. 4D) This reduction versus control SD was significant (p<0.02; n=4 & 5). (FIG. 4E) CellROX can be used to measure relative OS in specific brain cell types.
FIGS. 9a-9f IGF-1 decreased oxidative stress from spreading depression. (FIG. 9a) NeuN immunohistochemical labeling of a hippocampal slice culture, for cytoarchitectural reference and to show the CA3 area of interest (dotted line box) used for quantification of oxidative stress (OS) via CellROX™ fluorescence intensity. (FIGS. 9b-c) Representative CellROX™-labeled hippocampal slices exposed to SD (FIG. 9b) and to 3-day IGF-1 incubation followed by spreading depression (SD) (FIG. 9c). Dotted line boxes illustrate CA3 areas of interest used for relative OS quantifications. […] Again, seven day treatments consisted of exposing cultures to IGF-1 for 12 hours a day for seven days. Note: IGF-1 exposure was continued for the additional 24 hour CellROX™ incubation. Scale bars=400 μm (a) and 200 μm (b and c). Comparisons between groups were made via ANOVA plus Holm-Sidak post hoc testing.
FIGS. 11a-11g IGF-1 decreased CA3 oxidative stress (OS) and its related hyperexcitability. […] Relative evoked excitability was determined as a sum of responses seen (e.g., responses of “2” and a “3” yielded an overall excitability score of five). […] (FIGS. 11d-e) Exemplary images of control (FIG. 11d) slice culture OS compared to increased slice OS induced by exposure to menadione (FIG. 11e). Calibration bar, 200 Dotted boxes indicate CA3 areas of interest used for relative OS quantifications (f and g).
Oxidative stress from SD preferentially rises in astrocytes and microglia, with the latter effect mitigated by IGF-1 (FIG. 13). The inventors have recently shown that spreading depression (SD), the most likely cause of migraine aura and perhaps migraine (Lauritzen and Kraig, 2005), occurs with increased oxidative stress (OS) and that OS, in turn, increases SD susceptibility (Grinberg et al., 2012). Reactive oxygen and nitrogen species that cause OS have both autocrine and paracrine signaling capacities that can affect SD susceptibility by altering excitability (Kishida and Klann, 2007). Accordingly, the inventors looked for the cellular origin of OS from SD. Here the inventors used hippocampal slice cultures (HSC) to probe for cell-specific changes in OS from SD. SD was induced trans-synaptically in rat HSCs using bipolar electrical stimuli at the dentate gyrus (Pusic et al., 2011). Six SDs were induced every 7-9 min over an hr, followed by 24 hr incubation in CellROX™, a fixable fluorogenic probe for measuring OS (Grinberg et al., 2012). HSCs were then fixed in 10% buffered formalin phosphate. Other fixatives (PLP, 4% paraformaldehyde) prevented detection of OS change. Tissue was then labeled for neurons (anti-NeuN), oligodendrocytes (anti-RIP), astrocytes (anti-GFAP), or for microglia (isolectin GS-IB4).

Molecule	OS / reactive oxygen species generated from cLTP [1]	baseline slice culture OS versus control ([2]; 3-day IGF-1 alone)	decrease in OS from SD ([2]; 3-day exposure to IGF-1) [%]	reduction of baseline OS levels compared with controls ([2]; 7-day exposure to IGF-1 alone) [%]	decrease in OS from SD ([2]; 7 days IGF-1, phasic) [%]	increased OS induced by SD ([2]; IGF-1 (40 ng/mL) for 3 days prior to SD)	increased OS induced by SD ([2]; IGF-1 acutely)	increased OS induced by SD ([2]; IGF-1 for 7 days prior to SD, 12 hours a day)	baseline slice culture OS versus control ([2]; acute IGF-1 exposure alone)	decrease in OS from SD ([2]; acute treatment with IGF-1) [%]	OS induced by menadione versus control ([2]; menadione exposure, without or with acute IGF-1)	OS induced by menadione versus control ([2]; pretreatment with IGF-1 for 3 days)	OS ([2]; transient (pulsed) IFN-γ 500 U/mL × 12 hours, assessed seven days later)
Insulin-like growth factor 1 [IGF-1]	significant reduction in OS from cLTP	significantly reduce baseline OS; also recorded: reduced slice culture OS	30	26	73	reduction in OS; also recorded: abrogated	abrogated	significantly reduced	did not reduced slice culture OS	20	abrogated; also recorded: reduced OS from menadione	abrogated; also recorded: reduced menadione-induced significant increase in OS	
Interferon-gamma (protein, listed as Homo sapiens) MKYTSYILAFQLCIVLGSLGCYCQDPYVKEAENLKKYFNAGHSDVADNGTLFLGILKNWKEESDRKIMQSQIVSFYFKLFKNFKDDQSIQKSVETIKEDMNVKFFNSNKKKRDDFEKLTNYSVTDLNVQRKAIHELIQVMAELSPAAKTGKRKRSQMLFRGRRASQ	significantly reduced reactive oxygen species												OS is reduced; also recorded: similarly reduced
